# Measurements from patent US7261906B2, “Anti-cancer therapy agent of arsenic hexoxide (As4O6) of a natural chemical substance and its pharmaceutical composition” (priority 1998, dated 2007).
# Test: Acute toxicity, single oral administration
# Type: in vivo, Rats (Sprague Dawley strain)
# Conditions: for Mortality, Days after treatment 1 / Mortality, Days after treatment 2 / Mortality, Days after treatment 3 / Mortality, Days after treatment 4 / Mortality, Days after treatment 5 / Mortality, Days after treatment 6 / Mortality, Days after treatment 7 / Mortality, Days after treatment 8 / Mortality, Days after treatment 9 / Mortality, Days after treatment 10 / Mortality, Days after treatment 11 / Mortality, Days after treatment 12 / Mortality, Days after treatment 13 / Mortality, Days after treatment 14 / Mortality, Hours after treatment 1 / Mortality, Hours after treatment 2 / Mortality, Hours after treatment 3 / Mortality, Hours after treatment 4 / Mortality, Hours after treatment 5 / Mortality, Hours after treatment 6 / Final mortality / Final mortality (dead/total): male
# Protocol: The acute toxicity of oral administration of HD-2 was evaluated according to toxicity assessment criteria described in Article 96-8 of Notice on Food and Drug Safety (Apr. 16, 1994). Rats (Sprague Dawley strain) were used for animal experiments. Dosage of a single, oral administration ranged from 0.4 to 1.25 g/kg body weight in male rats and 0.4 to […] body weight in female rats. General conditions of the animals, toxic symptoms, and mortality were measured every hour for the initial 6 hours following the single administration and once a day afterwards for 14 days. Body weights were measured before starting the study, 7 days after the administration, and at autopsy. Expired rats were studied to find the cause of death at autopsy. […] Some rats manifesting these clinical symptoms expired, but others recovered to normal condition within 2 to 3 days of clinical symptoms.
compound,measurement,setting,value
"O1[As]2O[As]3O[As]1O[As](O2)O3 [HD-2, arsenic hexoxide (As4O6)]","Mortality, Days after treatment 1",0.4 g/kg B.W. oral,0
same,"Mortality, Days after treatment 2",0.4 g/kg B.W. oral,0
same,"Mortality, Days after treatment 3",0.4 g/kg B.W. oral,0
same,"Mortality, Days after treatment 4",0.4 g/kg B.W. oral,0
same,"Mortality, Days after treatment 5",0.4 g/kg B.W. oral,0
same,"Mortality, Days after treatment 6",0.4 g/kg B.W. oral,0
same,"Mortality, Days after treatment 7",0.4 g/kg B.W. oral,0
same,"Mortality, Days after treatment 8",0.4 g/kg B.W. oral,0
same,"Mortality, Days after treatment 9",0.4 g/kg B.W. oral,0
same,"Mortality, Days after treatment 10",0.4 g/kg B.W. oral,0
same,"Mortality, Days after treatment 11",0.4 g/kg B.W. oral,0
same,"Mortality, Days after treatment 12",0.4 g/kg B.W. oral,0
same,"Mortality, Days after treatment 13",0.4 g/kg B.W. oral,0
same,"Mortality, Days after treatment 14",0.4 g/kg B.W. oral,0
same,"Mortality, Hours after treatment 1",0.4 g/kg B.W. oral,0
same,"Mortality, Hours after treatment 2",0.4 g/kg B.W. oral,0
same,"Mortality, Hours after treatment 3",0.4 g/kg B.W. oral,0
same,"Mortality, Hours after treatment 4",0.4 g/kg B.W. oral,0
same,"Mortality, Hours after treatment 5",0.4 g/kg B.W. oral,0
same,"Mortality, Hours after treatment 6",0.4 g/kg B.W. oral,0
same,Final mortality,"0.4 g/kg B.W. oral, 14 days",0%
same,Final mortality (dead/total),"0.4 g/kg B.W. oral, 14 days",0/5
same,"Mortality, Days after treatment 1",0.6 g/kg B.W. oral,0
same,"Mortality, Days after treatment 2",0.6 g/kg B.W. oral,0
same,"Mortality, Days after treatment 3",0.6 g/kg B.W. oral,0
same,"Mortality, Days after treatment 4",0.6 g/kg B.W. oral,0
same,"Mortality, Days after treatment 5",0.6 g/kg B.W. oral,0
same,"Mortality, Days after treatment 6",0.6 g/kg B.W. oral,0
same,"Mortality, Days after treatment 7",0.6 g/kg B.W. oral,0
same,"Mortality, Days after treatment 8",0.6 g/kg B.W. oral,0
same,"Mortality, Days after treatment 9",0.6 g/kg B.W. oral,0
same,"Mortality, Days after treatment 10",0.6 g/kg B.W. oral,0
same,"Mortality, Days after treatment 11",0.6 g/kg B.W. oral,0
same,"Mortality, Days after treatment 12",0.6 g/kg B.W. oral,0
same,"Mortality, Days after treatment 13",0.6 g/kg B.W. oral,0
same,"Mortality, Days after treatment 14",0.6 g/kg B.W. oral,0
same,"Mortality, Hours after treatment 1",0.6 g/kg B.W. oral,0
same,"Mortality, Hours after treatment 2",0.6 g/kg B.W. oral,0
same,"Mortality, Hours after treatment 3",0.6 g/kg B.W. oral,0
same,"Mortality, Hours after treatment 4",0.6 g/kg B.W. oral,0
same,"Mortality, Hours after treatment 5",0.6 g/kg B.W. oral,0
same,"Mortality, Hours after treatment 6",0.6 g/kg B.W. oral,0
same,Final mortality,"0.6 g/kg B.W. oral, 14 days",0%
same,Final mortality (dead/total),"0.6 g/kg B.W. oral, 14 days",0/5
same,"Mortality, Days after treatment 1",0.8 g/kg B.W. oral,1
same,"Mortality, Days after treatment 2",0.8 g/kg B.W. oral,1
same,"Mortality, Days after treatment 3",0.8 g/kg B.W. oral,0
same,"Mortality, Days after treatment 4",0.8 g/kg B.W. oral,0
same,"Mortality, Days after treatment 5",0.8 g/kg B.W. oral,0
same,"Mortality, Days after treatment 6",0.8 g/kg B.W. oral,0
same,"Mortality, Days after treatment 7",0.8 g/kg B.W. oral,0
same,"Mortality, Days after treatment 8",0.8 g/kg B.W. oral,0
same,"Mortality, Days after treatment 9",0.8 g/kg B.W. oral,0
same,"Mortality, Days after treatment 10",0.8 g/kg B.W. oral,0
same,"Mortality, Days after treatment 11",0.8 g/kg B.W. oral,0
same,"Mortality, Days after treatment 12",0.8 g/kg B.W. oral,0
same,"Mortality, Days after treatment 13",0.8 g/kg B.W. oral,0
same,"Mortality, Days after treatment 14",0.8 g/kg B.W. oral,0
same,"Mortality, Hours after treatment 1",0.8 g/kg B.W. oral,0
same,"Mortality, Hours after treatment 2",0.8 g/kg B.W. oral,0
same,"Mortality, Hours after treatment 3",0.8 g/kg B.W. oral,0
same,"Mortality, Hours after treatment 4",0.8 g/kg B.W. oral,0
same,"Mortality, Hours after treatment 5",0.8 g/kg B.W. oral,0
same,"Mortality, Hours after treatment 6",0.8 g/kg B.W. oral,0
same,Final mortality,"0.8 g/kg B.W. oral, 14 days",10%
same,Final mortality (dead/total),"0.8 g/kg B.W. oral, 14 days",2/5
same,"Mortality, Days after treatment 1",0.85 g/kg B.W. oral,2
same,"Mortality, Days after treatment 2",0.85 g/kg B.W. oral,1
same,"Mortality, Days after treatment 3",0.85 g/kg B.W. oral,0
same,"Mortality, Days after treatment 4",0.85 g/kg B.W. oral,0
same,"Mortality, Days after treatment 5",0.85 g/kg B.W. oral,0
same,"Mortality, Days after treatment 6",0.85 g/kg B.W. oral,0
same,"Mortality, Days after treatment 7",0.85 g/kg B.W. oral,0
same,"Mortality, Days after treatment 8",0.85 g/kg B.W. oral,0
same,"Mortality, Days after treatment 9",0.85 g/kg B.W. oral,0
same,"Mortality, Days after treatment 10",0.85 g/kg B.W. oral,0
same,"Mortality, Days after treatment 11",0.85 g/kg B.W. oral,0
same,"Mortality, Days after treatment 12",0.85 g/kg B.W. oral,0
same,"Mortality, Days after treatment 13",0.85 g/kg B.W. oral,0
same,"Mortality, Days after treatment 14",0.85 g/kg B.W. oral,0
same,"Mortality, Hours after treatment 1",0.85 g/kg B.W. oral,0
same,"Mortality, Hours after treatment 2",0.85 g/kg B.W. oral,0
same,"Mortality, Hours after treatment 3",0.85 g/kg B.W. oral,0
same,"Mortality, Hours after treatment 4",0.85 g/kg B.W. oral,0
same,"Mortality, Hours after treatment 5",0.85 g/kg B.W. oral,0
same,"Mortality, Hours after treatment 6",0.85 g/kg B.W. oral,0
same,Final mortality,"0.85 g/kg B.W. oral, 14 days",60%
same,Final mortality (dead/total),"0.85 g/kg B.W. oral, 14 days",3/5
same,"Mortality, Days after treatment 1",1.25 g/kg B.W. oral,3
same,"Mortality, Days after treatment 2",1.25 g/kg B.W. oral,1
same,"Mortality, Days after treatment 3",1.25 g/kg B.W. oral,0
same,"Mortality, Days after treatment 4",1.25 g/kg B.W. oral,0
same,"Mortality, Days after treatment 5",1.25 g/kg B.W. oral,0
same,"Mortality, Days after treatment 6",1.25 g/kg B.W. oral,0
same,"Mortality, Days after treatment 7",1.25 g/kg B.W. oral,0
same,"Mortality, Days after treatment 8",1.25 g/kg B.W. oral,0
same,"Mortality, Days after treatment 9",1.25 g/kg B.W. oral,0
same,"Mortality, Days after treatment 10",1.25 g/kg B.W. oral,0
same,"Mortality, Days after treatment 11",1.25 g/kg B.W. oral,0
same,"Mortality, Days after treatment 12",1.25 g/kg B.W. oral,0
same,"Mortality, Days after treatment 13",1.25 g/kg B.W. oral,0
same,"Mortality, Days after treatment 14",1.25 g/kg B.W. oral,0
same,"Mortality, Hours after treatment 1",1.25 g/kg B.W. oral,0
same,"Mortality, Hours after treatment 2",1.25 g/kg B.W. oral,0
same,"Mortality, Hours after treatment 3",1.25 g/kg B.W. oral,0
same,"Mortality, Hours after treatment 4",1.25 g/kg B.W. oral,0
same,"Mortality, Hours after treatment 5",1.25 g/kg B.W. oral,0
same,"Mortality, Hours after treatment 6",1.25 g/kg B.W. oral,0
same,Final mortality,"1.25 g/kg B.W. oral, 14 days",100%
same,Final mortality (dead/total),"1.25 g/kg B.W. oral, 14 days",5/5
same,side effect,"rats, single administration of 500 mg/kg body weight per day",did not have any side effect
same,Autopsy findings of rats expired during the study period,single oral administration,expanded stomach and engorged liver
same,Autopsy findings of rats killed at the end of the study,"single oral administration, 14 days",Significant findings related to HD-2 administration were not observed
same,Clinical symptoms,within 3 days of single oral administration,dose-dependent depression and dyspnea
